In patent US8268809B2, “Kinase inhibitors for preventing or treating pathogen infection and method of use thereof” (priority 2006, dated 2012):
Entries after “also recorded” stand apart in the source; their conditions may differ.

System: vaccinia virus
Format: cell-based
Wherever VACCINIA PLAQUE ASSAY 2 is given: test concentration or dose not given here.

Structure (SMILES) | Class category of infected monolayers in plaque assay | VACCINIA PLAQUE ASSAY 2 | VACCINIA Plaque Assay | Plaque phenotype due to drug treatment (FIGS. 1, 2, 4)
Brc1cnc2c(NCC3CC3)nccn12 [LG2-101] | Class III | PINPOINTS | SMALL PLAQUES, WITH TAILS | 
COc1cc(OC)cc(-c2ccc3c(-c4ccc(F)c(C)c4)n[nH]c3n2)c1 [APcK-109] | Class II | SMALL PLAQUES, LARGE TAILS | SLIGHTLY SMALLER PLAQUES | 
CC(=O)Nc1cccc(-c2ccc3c(-c4ccc(F)c(C)c4)n[nH]c3n2)c1 [APcK-102] | Class III | NO PLAQUES | SMALLER PLAQUES THAN WT | 
COc1cccc(-c2cnc3c(Nc4ccccc4)nccn23)c1 [LG2-85] | Class III | NO PLAQUES | PINPOINT PLAQUES | 
COc1cc(OC)cc(-c2cnc3c(NCC4CC4)nccn23)c1 [LG2-102] | Class III | NO PLAQUES | NO PLAQUES | 
CC(=O)Nc1cccc(-c2ccc3c(-c4ccc(Cl)c(F)c4)n[nH]c3n2)c1 [APcK-104] | Class III | PINPOINT PLAQUES | SMALLER PLAQUES THAN WT. NO COMETS | 
CN(C)CCCNC(=O)/C=C\C(=O)Nc1ccc2ncnc(Nc3cccc(I)c3)c2c1 [JGAP-13] |  |  | MORE PLAQUES THAN WT | more plaque formations than wild type; also recorded: more plaques than WT
Cn1c(=O)c(-c2c(Cl)cccc2Cl)cc2cnc(NC3CCN(Cc4ccccc4)CC3)nc21 [YYA188] | Class III | NO PLAQUES | NO PLAQUES | 
COc1ccccc1NS(=O)(=O)c1cccc(Nc2cc(-c3ccc(C(=O)O)cc3)ncn2)c1 [Eph2_wbz 104] | Class III | SLIGHTLY SMALLER PLAQUES | NO PLAQUES | 
Cn1c(=O)c(-c2c(Cl)cccc2Cl)cc2cnc(Nc3ccc(O)cc3)nc21 [YYA190] |  |  | CPE (MONO- LAYER NOT INFECTED WITH VV; DRUG DE- STROYED MONO- LAYER, THOUGH) | 
CC(C)c1ccc(Nc2nccn3c(Br)cnc23)cc1 [LG2-60] |  | NO PLAQUES |  | 
COc1ccccc1NS(=O)(=O)c1cccc(Nc2cc(-c3ccc(C(F)(F)F)cc3)ncn2)c1 [Eph2_wbz 107] | Class II | SMALLER PLAQUES THAN WT | SMALLER PLAQUES THAN WT | 
CCOC(=O)c1ccc(-c2ccc3c(-c4ccc(C#N)cc4)n[nH]c3n2)cc1 [APcK-55] |  | NO PLAQUES |  | 
COc1ccc(Nc2nccn3c(-c4cccc(C(N)=O)c4)cnc23)cc1 [LG2-13] | Class III | SLIGHTLY SMALLER PLAQUES | PINPOINT PLAQUES | 
O=C(NCCO)c1cccc(-c2cnc3c(NCc4ccc(F)cc4)nccn23)c1 [LG2-96] | Class III | NO PLAQUES | NO PLAQUES | no pinpoint plaque formed; also recorded: no plaques
CCOC(=O)c1ccc(-c2ccc3c(-c4ccc(C(=O)OC)cc4)n[nH]c3n2)cc1 [APcK-32] |  |  | LARGE COMETS | small plaque and large comets; also recorded: small plaques with large comets
COC(=O)c1ccc(-c2cc(Nc3ccccc3OC)ncn2)cc1OC [Eph2_wbz 211] | Class II | SLIGHTLY SMALLER PLAQUES | SMALL PLAQUES Comets? | 
COc1ccccc1NS(=O)(=O)c1cccc(Nc2cc(-c3ccc([N+](=O)[O-])cc3)ncn2)c1 [Eph2_wbz 103] | Class III | PINPOINT | NO PLAQUES | 
CCOC(=O)c1ccc(-c2n[nH]c3nc(-c4ccc5cc[nH]c5c4)ccc23)cc1 [APcK-58] |  | NO PLAQUES |  | 
Cn1c(=O)c(-c2c(Cl)cccc2Cl)cc2cnc(Nc3cccc(C(C)(C)C)c3)nc21 [YYA195] | Class III | NO PLAQUES | NO PLAQUES | 
CCc1nnc2ccc(-c3cccc(NC(=O)c4ccc(OC)c(OC)c4)c3)nn12 [YYB41] | Class II | SMALL PLAQUES | SMALL PLAQUES | 
O=C1NC(=O)/C(=C/c2ccc3c(c2)OC(F)(F)O3)S1 [AS-604850, reference compound] | Class III | NO PLAQUES | NO PLAQUES | 

Structure (SMILES) | Class category of infected monolayers in plaque assay | VACCINIA PLAQUE ASSAY 2 | VACCINIA Plaque Assay | Plaque phenotype due to drug treatment (FIGS. 1, 2, 4)
O=C(NCCO)c1cccc(-c2cnc3c(NCc4cccs4)nccn23)c1 [LG2-98] | Class III | PINPOINTS | SMALL PLAQUES, WITH TAILS | 
COc1cc(-c2cnc3c(Nc4ccccc4)nccn23)ccc1O [LG2-62] | Class II | SMALL PLAQUES | SMALLER PLAQUES THAN WT | 
O=C1NC(=O)/C(=C/c2ccc3nccnc3c2)S1 [AS-604240, reference compound] | Class III | PINPOINT PLAQUES | PINPOINT PLAQUES | 
COc1ccccc1NS(=O)(=O)c1cccc(Nc2cc(-c3ccc(C(C)=O)cc3)ncn2)c1 [Eph2_wbz 110] | Class III | PINPOINT | PINPOINT PLAQUES | pinpoint plaque formations; also recorded: pinpoint plaques
CC(=O)Nc1cccc(-c2ccc3c(-c4ccc(Cl)cc4Cl)n[nH]c3n2)c1 [APcK-40] | Class III | PINPOINT PLAQUES | SLIGHTLY SMALLER PLAQUES | 
COC(=O)C1(Cc2ccccc2)OC(=O)C(O)=C1c1ccccc1 (stereo not shown) [butyro- lactones-1] |  |  | SMALL PLAQUES WITH LARGE TAILS OR CPE | more plaque formations than wild type; also recorded: more plaques than WT
COc1cc(OC)cc(-c2ccc3c(-c4ccc(F)cc4)n[nH]c3n2)c1 [APcK-110] | Class II | SMALL PLAQUES | SMALL PLAQUES, SEE LOTS OF SATELLITE PLAQUES | 
CN(C)CCNC(=O)c1ccc(-c2cnc3c(Nc4ccc(Oc5ccccc5)cc4)nccn23)cc1 [LG2-11] | Class III | NO PLAQUES | CPE, PINPOINT PLAQUES | 
CC(=O)Nc1ccc(-c2ccc3c(-c4ccc(Br)cc4)n[nH]c3n2)cc1 [APcK-27] | Class III | SMALL PLAQUES | PINPOINT PLAQUES | pinpoint plaque formations; also recorded: pinpoint plaques
O=C(Nc1cccc(-c2ccc3nnc(-c4ccco4)n3n2)c1)Sc1ccccc1 [LG2-79] | Class II | SMALL PLAQUES | SMALLER PLAQUES, COMETS? | 
CC(=O)Nc1ccc(-c2ccc3c(-c4ccc(Br)c(F)c4)n[nH]c3n2)cc1 [APcK-20] |  | NO PLAQUES |  | 
CCOC(=O)c1ccc(-c2n[nH]c3nc(-c4cc(OC)cc(OC)c4)ccc23)cc1 [APcK-108] | Class III | SMALL PLAQUES | PINPOINT PLAQUES | pinpoint plaque formations; also recorded: pinpoint plaques
Cc1ccc(-n2c(=O)[nH]c3c(C(N)=O)nc(-c4ccc(-c5cccs5)s4)nc32)cc1 [dm-I-184] |  | SLIGHTLY SMALLER PLAQUES |  | 
O=C(c1ccccc1)c1ccc(-c2ccc3c(-c4ccc(Br)c(F)c4)n[nH]c3n2)cc1 [APcK-38] |  | NO PLAQUES |  | 
COc1ccccc1Nc1cc(-c2ccc(NC(C)=O)cc2)ncn1 [Eph2_wbz 206] | Class II | SMALL PLAQUES | SMALL PLAQUES, COMETS? | small plaques with comets
CC(=O)Nc1cccc(-c2ccc3c(-c4ccc(Br)cc4F)n[nH]c3n2)c1 [APcK-41] |  | NO PLAQUES |  | 
COc1ccccc1NS(=O)(=O)c1cccc(Nc2cc(-c3ccc(NC(=O)CCC(=O)O)cc3)ncn2)c1 [Eph2_wbz 117] | Class III | SMALL PLAQUES; COMETS? | NO PLAQUES | 
O=C(Nc1cccc(-c2ccc(Cl)nn2)c1)c1cccc([N+](=O)[O-])c1 [YYB19] | Class III | NO PLAQUES | PINPOINT PLAQUES | 
COc1cccc(-c2cc(Nc3cccc(S(=O)(=O)Nc4ccccc4OC)c3)ncn2)c1 [Eph2_wbz 112] | Class III | PINPOINT | SMALL PLAQUES | 
COc1ccccc1NS(=O)(=O)c1cccc(Nc2cc(-c3ccc(NC(C)=O)cc3)ncn2)c1 [Eph2_wbz 106] | Class III | SMALLER PLAQUES THAN WT | NO PLAQUES | 
COc1ccccc1Nc1cc(-c2ccc(O)cc2)ncn1 [Eph2_wbz 202] | Class III | PINPOINT PLAQUES | PLAQUES SMALLER THAN WT, STILL SEE COMETS | 
